Experiments:
[1] = biological target: Histamine H3 receptor (Rattus norvegicus, UniProt Q9QYN8); assay: Displacement of [3H]NAMH from rat cloned histamine 3 receptor expressed in CHO cells; type: cell-based
[2] = biological target: Histamine H3 receptor (Homo sapiens, UniProt Q9Y5N1); assay: Displacement of [3H]NAMH from human cloned histamine 3 receptor expressed in CHO cells; type: cell-based
[3] = Ratio of drug level in brain to plasma in iv dosed rat; type: ADME, organism-based; details: read-out: BPR
[4] = Oral bioavailability in rat; type: ADME, organism-based; details: in vivo
[5] = Ratio of drug level in brain to plasma in rat at 5 mg/kg, po; type: ADME, organism-based; set-up: dose 5 mg/kg, route oral; details: read-out: BPR
[6] = AUC (0 to 6 hrs) in rat at 5 mg/kg, po; type: ADME, organism-based; set-up: time < 6 hr, dose 5 mg/kg, route oral; details: plasma
[7] = Half life in rat at 5 mg/kg, po after 6 hrs; type: ADME, organism-based; set-up: dose 5 mg/kg, route oral; details: in vivo
[8] = Half life in rat liver microsomes; type: ADME, Microsome
[9] = Volume of distribution in iv dosed rat; type: ADME, organism-based; details: in vivo
[10] = Half life in iv dosed rat; type: ADME, organism-based; details: in vivo
[11] = biological target: Cytochrome P450 3A4 (Homo sapiens, UniProt P08684); assay: Inhibition of CYP3A4; type: ADME
Cytochrome P450 3A4, sequence (P08684 whole entry): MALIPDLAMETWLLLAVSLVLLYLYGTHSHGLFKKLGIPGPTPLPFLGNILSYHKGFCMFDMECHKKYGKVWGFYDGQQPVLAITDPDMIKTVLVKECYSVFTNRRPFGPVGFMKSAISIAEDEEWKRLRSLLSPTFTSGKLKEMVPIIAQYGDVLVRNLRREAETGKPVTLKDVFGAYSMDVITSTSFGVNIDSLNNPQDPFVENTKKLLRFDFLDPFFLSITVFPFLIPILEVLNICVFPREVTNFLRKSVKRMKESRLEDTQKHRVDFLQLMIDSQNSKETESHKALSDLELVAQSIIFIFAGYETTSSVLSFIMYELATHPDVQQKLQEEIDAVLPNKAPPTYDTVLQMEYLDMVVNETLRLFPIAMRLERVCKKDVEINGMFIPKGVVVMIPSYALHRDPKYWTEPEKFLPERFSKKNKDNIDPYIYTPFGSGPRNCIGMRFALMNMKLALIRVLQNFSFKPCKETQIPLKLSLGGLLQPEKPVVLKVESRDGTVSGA

[12] = Half life in dog liver microsomes; type: ADME, Canis lupus familiaris, Microsome
[13] = Clearance in iv dosed rat; type: ADME, organism-based; details: in vivo
[14] = biological target: Cytochrome P450 2C19 (Homo sapiens, UniProt P33261); assay: Inhibition of CYP2C19; type: ADME
Cytochrome P450 2C19, sequence (P33261 whole entry): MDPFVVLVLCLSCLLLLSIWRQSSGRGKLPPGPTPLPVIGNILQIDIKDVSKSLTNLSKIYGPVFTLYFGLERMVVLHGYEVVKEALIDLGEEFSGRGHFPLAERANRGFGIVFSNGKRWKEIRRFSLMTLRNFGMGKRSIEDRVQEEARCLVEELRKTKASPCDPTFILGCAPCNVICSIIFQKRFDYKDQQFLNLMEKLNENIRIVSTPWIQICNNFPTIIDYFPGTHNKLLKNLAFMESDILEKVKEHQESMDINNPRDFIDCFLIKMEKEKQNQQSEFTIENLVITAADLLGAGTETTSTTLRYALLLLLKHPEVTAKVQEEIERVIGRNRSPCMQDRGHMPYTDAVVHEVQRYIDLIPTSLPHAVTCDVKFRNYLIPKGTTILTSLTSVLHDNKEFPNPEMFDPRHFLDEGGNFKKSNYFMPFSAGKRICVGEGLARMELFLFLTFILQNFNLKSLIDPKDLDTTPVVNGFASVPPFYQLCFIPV

[15] = biological target: T1, Cytochrome P450 1A2 (Homo sapiens, UniProt P05177); assay: Inhibition of CYP1A2; type: ADME
T1 sequence (P05177 whole entry): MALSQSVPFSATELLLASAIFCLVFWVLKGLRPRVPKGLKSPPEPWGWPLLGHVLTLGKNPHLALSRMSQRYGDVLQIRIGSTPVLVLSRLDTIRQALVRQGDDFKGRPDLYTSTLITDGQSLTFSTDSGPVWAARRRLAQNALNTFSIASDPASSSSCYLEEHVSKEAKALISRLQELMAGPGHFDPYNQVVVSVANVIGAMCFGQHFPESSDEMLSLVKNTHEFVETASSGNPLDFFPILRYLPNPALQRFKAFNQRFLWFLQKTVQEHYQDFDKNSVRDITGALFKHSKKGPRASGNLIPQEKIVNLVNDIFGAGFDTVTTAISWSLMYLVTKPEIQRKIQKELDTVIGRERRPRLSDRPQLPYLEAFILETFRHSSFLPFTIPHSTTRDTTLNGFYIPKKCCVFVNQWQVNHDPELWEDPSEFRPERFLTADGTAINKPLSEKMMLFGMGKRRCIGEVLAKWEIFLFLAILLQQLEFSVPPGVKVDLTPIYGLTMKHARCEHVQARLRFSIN

[16] = Half life in mouse liver microsomes; type: ADME, Microsome
[17] = biological target: Cytochrome P450 2D6 (Homo sapiens, UniProt P10635); assay: Inhibition of CYP2D6; type: ADME
Cytochrome P450 2D6, sequence (P10635 whole entry): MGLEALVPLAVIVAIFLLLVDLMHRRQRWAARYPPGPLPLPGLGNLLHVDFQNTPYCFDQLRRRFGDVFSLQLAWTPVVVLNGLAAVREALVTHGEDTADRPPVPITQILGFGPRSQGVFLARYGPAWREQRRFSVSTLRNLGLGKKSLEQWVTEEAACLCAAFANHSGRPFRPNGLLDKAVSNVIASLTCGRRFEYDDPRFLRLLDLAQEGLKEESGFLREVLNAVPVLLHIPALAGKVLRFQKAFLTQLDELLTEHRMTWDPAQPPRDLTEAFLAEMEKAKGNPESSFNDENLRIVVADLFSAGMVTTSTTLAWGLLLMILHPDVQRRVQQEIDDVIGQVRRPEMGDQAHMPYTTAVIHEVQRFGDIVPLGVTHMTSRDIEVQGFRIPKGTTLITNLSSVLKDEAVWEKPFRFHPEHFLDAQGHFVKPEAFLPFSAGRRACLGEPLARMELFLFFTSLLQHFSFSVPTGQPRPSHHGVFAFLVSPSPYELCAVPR

[18] = biological target: Cytochrome P450 2C9 (Homo sapiens, UniProt P11712); assay: Inhibition of CYP2C9; type: ADME
Cytochrome P450 2C9, sequence (P11712 whole entry): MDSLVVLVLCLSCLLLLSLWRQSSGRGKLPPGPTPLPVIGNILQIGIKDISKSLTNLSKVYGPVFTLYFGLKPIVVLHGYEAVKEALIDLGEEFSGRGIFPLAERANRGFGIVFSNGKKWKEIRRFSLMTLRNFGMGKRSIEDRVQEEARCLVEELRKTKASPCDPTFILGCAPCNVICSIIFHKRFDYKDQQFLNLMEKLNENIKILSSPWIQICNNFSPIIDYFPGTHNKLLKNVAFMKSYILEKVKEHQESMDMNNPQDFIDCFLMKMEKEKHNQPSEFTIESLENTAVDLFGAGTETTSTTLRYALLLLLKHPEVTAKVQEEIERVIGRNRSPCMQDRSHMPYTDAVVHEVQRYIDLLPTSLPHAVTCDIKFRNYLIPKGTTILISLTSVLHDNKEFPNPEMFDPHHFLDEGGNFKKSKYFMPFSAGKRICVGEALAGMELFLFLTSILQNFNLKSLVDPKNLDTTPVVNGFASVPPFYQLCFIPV

[19] = Half life in human liver microsomes; type: ADME, Microsome
[20] = Half life in monkey liver microsomes; type: ADME, Macaca mulatta, Microsome; details: rhesus monkey
[21] = biological target: Voltage-gated inwardly rectifying potassium channel KCNH2 (Homo sapiens, UniProt Q12809); assay: Inhibition of human ERG by patch express assay
Voltage-gated inwardly rectifying potassium channel KCNH2, sequence (Q12809 whole entry): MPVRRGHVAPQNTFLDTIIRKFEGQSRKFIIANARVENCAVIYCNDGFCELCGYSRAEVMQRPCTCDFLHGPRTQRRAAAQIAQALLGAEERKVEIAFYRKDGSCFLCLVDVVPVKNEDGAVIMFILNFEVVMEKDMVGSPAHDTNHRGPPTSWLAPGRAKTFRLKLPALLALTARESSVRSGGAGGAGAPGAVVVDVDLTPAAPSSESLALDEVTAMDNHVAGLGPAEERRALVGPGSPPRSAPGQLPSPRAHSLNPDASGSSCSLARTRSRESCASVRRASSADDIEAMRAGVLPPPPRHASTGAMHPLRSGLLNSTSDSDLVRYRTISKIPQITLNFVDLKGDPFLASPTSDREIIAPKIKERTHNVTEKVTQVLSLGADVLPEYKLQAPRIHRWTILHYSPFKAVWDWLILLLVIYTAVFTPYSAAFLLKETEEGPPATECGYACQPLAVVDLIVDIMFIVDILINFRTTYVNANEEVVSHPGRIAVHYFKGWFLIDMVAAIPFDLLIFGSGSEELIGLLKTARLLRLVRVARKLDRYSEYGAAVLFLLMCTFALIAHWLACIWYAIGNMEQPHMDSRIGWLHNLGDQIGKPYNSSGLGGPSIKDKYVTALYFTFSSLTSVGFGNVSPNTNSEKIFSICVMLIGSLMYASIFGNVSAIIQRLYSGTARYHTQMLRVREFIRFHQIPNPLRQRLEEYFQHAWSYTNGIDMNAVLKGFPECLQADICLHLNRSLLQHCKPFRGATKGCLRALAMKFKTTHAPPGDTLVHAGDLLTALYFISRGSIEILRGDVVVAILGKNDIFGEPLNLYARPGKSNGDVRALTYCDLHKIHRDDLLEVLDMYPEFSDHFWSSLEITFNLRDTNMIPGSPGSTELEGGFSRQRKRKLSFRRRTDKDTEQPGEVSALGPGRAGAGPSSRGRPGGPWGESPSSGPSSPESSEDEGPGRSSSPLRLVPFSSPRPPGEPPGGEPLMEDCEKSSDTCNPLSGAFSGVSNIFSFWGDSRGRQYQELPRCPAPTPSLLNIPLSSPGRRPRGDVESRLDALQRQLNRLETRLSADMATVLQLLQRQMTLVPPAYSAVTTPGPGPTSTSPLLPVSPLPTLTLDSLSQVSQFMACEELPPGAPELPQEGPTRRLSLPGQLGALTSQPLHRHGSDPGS

Histamine H3 receptor (Rattus norvegicus, UniProt Q9QYN8), sequence (Q9QYN8 whole entry): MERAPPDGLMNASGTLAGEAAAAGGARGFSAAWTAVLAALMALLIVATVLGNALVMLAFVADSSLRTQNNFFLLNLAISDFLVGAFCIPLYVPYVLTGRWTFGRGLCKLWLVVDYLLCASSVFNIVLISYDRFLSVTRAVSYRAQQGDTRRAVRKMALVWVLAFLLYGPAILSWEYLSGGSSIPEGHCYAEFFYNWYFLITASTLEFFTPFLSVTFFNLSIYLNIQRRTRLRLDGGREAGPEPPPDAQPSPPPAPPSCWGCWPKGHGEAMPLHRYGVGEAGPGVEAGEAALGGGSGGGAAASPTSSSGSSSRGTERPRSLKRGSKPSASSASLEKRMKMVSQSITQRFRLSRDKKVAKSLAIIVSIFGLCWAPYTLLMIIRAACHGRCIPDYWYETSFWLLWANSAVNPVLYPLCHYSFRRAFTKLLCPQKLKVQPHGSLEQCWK
Histamine H3 receptor (Homo sapiens, UniProt Q9Y5N1), sequence (Q9Y5N1 whole entry): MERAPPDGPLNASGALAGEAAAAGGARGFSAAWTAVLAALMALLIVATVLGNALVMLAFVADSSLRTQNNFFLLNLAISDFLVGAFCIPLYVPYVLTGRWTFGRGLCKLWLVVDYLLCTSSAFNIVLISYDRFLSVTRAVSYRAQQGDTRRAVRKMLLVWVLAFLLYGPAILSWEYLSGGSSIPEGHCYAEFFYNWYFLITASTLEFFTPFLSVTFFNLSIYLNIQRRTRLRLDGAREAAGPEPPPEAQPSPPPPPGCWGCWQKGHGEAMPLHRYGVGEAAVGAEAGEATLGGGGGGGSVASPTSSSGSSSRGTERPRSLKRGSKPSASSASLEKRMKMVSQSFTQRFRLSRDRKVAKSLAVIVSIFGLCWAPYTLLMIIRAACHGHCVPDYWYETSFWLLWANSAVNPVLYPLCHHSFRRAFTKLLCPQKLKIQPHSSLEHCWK

Work on C[C@@H]1CCCN1CCCOc1ccc(-c2ccc(=O)[nH]n2)c(F)c1 yielded a Ki [1] of 0.069 µM and a Ki [2] of 0.016 µM.
Compound C[C@@H]1CCCN1CCCOc1ccc(-c2cc(-c3ccccn3)c(=O)[nH]n2)cc1 has a Ki [1] of 0.01 µM, a Ki [2] of 0.0031 µM and a Kp [3] of less than 1. The bioavailability [4] was less than 10%.
In the case of C[C@@H](COc1ccc(-c2ccc(=O)n(C)n2)cc1)CN1CCC[C@H]1C, the Ki [1] is reported as 0.052 µM and the Ki [2] is reported as 0.015 µM.
For C[C@@H]1CCCN1CCCOc1ccc(-c2ccc(=O)n(-c3ccccn3)n2)cc1, the Ki [1] was 0.022 µM and the Ki [2] was 0.01 µM.
C[C@@H]1CCCN1CCCOc1ccc(-c2ccc(=O)n(CCO)n2)cc1 showed a Ki [1] of 0.0095 µM and a Ki [2] of 0.003 µM.
C[C@@H]1CCCN1CCCOc1ccc(-c2ccc(=O)n(C)n2)cc1 showed a Kp [5] of 3.5, an AUC(0-t) at 6 h [6] of 538 ng·h/mL and a half-life [7] of 138 min.
Compound C[C@@H]1CCCN1CCCOc1ccc(-c2ccc(=O)n(C)n2)cc1Cl has a Ki [1] of 0.014 µM and a Ki [2] of 0.0044 µM.
C[C@@H]1CCCN1CCCOc1ccc(-c2ccc(=O)n(-c3ncccn3)n2)cc1 showed a half-life [8] greater than 40 min, a Vd [9] of 3.9 L/kg and a half-life [10] of 90 min. The IC50 [11] was greater than 30 µM, the half-life [12] was greater than 40 min and the clearance [13] was 29 mL/min/kg. It also gave a Ki [1] of 0.0079 µM, an IC50 [14] greater than 30 µM and a Ki [2] of 0.0014 µM. For the same compound, the Kp [3] was 0.5, the IC50 [15] was greater than 30 µM and the half-life [16] was greater than 40 min. For the same compound, the IC50 [17] was greater than 30 µM, the IC50 [18] was greater than 30 µM and the half-life [19] was greater than 40 min. For the same compound, the half-life [20] was greater than 40 min, the IC50 [21] was greater than 10 µM and the bioavailability [4] was 56%.
C[C@@H]1CCCN1CCCOc1c(F)cc(-c2ccc(=O)n(C)n2)cc1F showed a Ki [1] of 0.041 µM and a Ki [2] of 0.011 µM.
COc1cc(OCCCN2CCC[C@H]2C)ccc1-c1ccc(=O)[nH]n1 showed a Ki [1] of 0.229 µM and a Ki [2] of 0.152 µM.

From ChEMBL document CHEMBL1828619, “Identification of pyridazin-3-one derivatives as potent, selective histamine H₃ receptor inverse agonists with robust wake activity” (Bioorg Med Chem Lett, 2011)
